{"source": "paper PMC10077692", "about": "“Phytochemical profile, comparative evaluation of Satureja montana alcoholic extract for antioxidants, anti-inflammatory and molecular docking studies” (BMC Complementary Medicine and Therapies, 2023)", "tested_on": "MDA", "assay": "In-vitro antioxidant assay, MDA", "type": "biochemical", "experimental": "The enzymatic assays of COXs, LOX, TAC, Catalase, MDA, GSH, SOD, TNF -α, and MPO were determined colorimetrically as mentioned previously in reports.\nMicrosoft Excel 2010 program. All the data in Table 4 was represented as mean ± SD [23].\nTotal antioxidant capacity is the measure of the number of free radicals scavenged by a test solution, being used to evaluate the antioxidant capacity of biological samples. […] The standard ascorbic acid results were (19.7, 17.2 and 13.1 IU/ml) for TAC, Catalase and SOD, respectively.", "data": [{"compound": "O=C1O[C@H]([C@@H](O)CO)C(O)=C1O", "note": "[ascorbic acid]", "values": [{"measurement": "MDA level", "result": 15.3, "unit": "µg/mL"}]}]}
